# Data as given in ChEMBL document CHEMBL1777743, “Macrolactin W, a new antibacterial macrolide from a marine Bacillus sp” (2011).
# Activity calls are given as the source filed them. The calls are words filed in the database; no cut-off is given here.
# Key:
# HCT-15 = assay: Cytotoxicity against human HCT15 at 10 ug/ml; format: functional, cell-based
# ACHN = assay: Cytotoxicity against human ACHN at 10 ug/ml; format: functional, cell-based
# PC-3 = assay: Cytotoxicity against human PC3 at 10 ug/ml; format: functional, cell-based
# NUGC-3 = assay: Cytotoxicity against human NUGC3 at 10 ug/ml; format: functional, cell-based
# MDA-MB-231 = assay: Cytotoxicity against human MDA-MB-231 at 10 ug/ml; format: functional, cell-based
# NCI-H23 = assay: Cytotoxicity against human NCI-H23 at 10 ug/ml; format: functional, cell-based
# Escherichia coli = assay: Antibacterial activity against Escherichia coli KCTC 1923 after 18 hrs by serial dilution technique; format: functional; details: KCTC 1923, 18 h
# Staphylococcus aureus = assay: Antibacterial activity against Staphylococcus aureus KCTC 1916 after 18 hrs by serial dilution technique; format: functional; details: KCTC 1916, 18 h
# Bacillus subtilis = assay: Antibacterial activity against Bacillus subtilis KCTC 1021 after 18 hrs by serial dilution technique; format: functional; details: KCTC 1021, 18 h
# Pseudomonas aeruginosa = assay: Antibacterial activity against Pseudomonas aeruginosa KCTC 2592 after 18 hrs by serial dilution technique; format: functional; details: KCTC 2592, 18 h
smiles,measurement,setting,value
C[C@H]1CCC/C=C\C=C\[C@H](O)C[C@@H](O)C/C=C\C=C\[C@@H](OC(=O)CCC(=O)O[C@H]2O[C@@H](CO)[C@H](O)[C@@H](O)[C@@H]2O)C/C=C/C=C\C(=O)O1 [MACROLACTIN W],Activity,HCT-15,inactive
same,Activity,ACHN,inactive
same,Activity,PC-3,inactive
same,Activity,NUGC-3,inactive
same,Activity,MDA-MB-231,inactive
same,Activity,NCI-H23,inactive
same,MIC,Escherichia coli,64 µg/mL
same,MIC,Staphylococcus aureus,64 µg/mL
same,MIC,Bacillus subtilis,64 µg/mL
same,MIC,Pseudomonas aeruginosa,64 µg/mL
